{"source": "paper PMC2954059", "about": "(Journal of medicinal chemistry, 2010)", "key": {"[1]": {"test": "Concentrations of 1 in mouse serum and tissue samples by LC-MS/MS", "format": "in vivo, C57BL/6 mice"}, "[2]": {"format": "in vivo, C57BL/6 mice", "conditions": "24 mg/kg subcutaneous; for Concentration in the mouse brain: N = 3; for Concentration observed in brain, in molar terms: mouse brain, the quantified mouse (4a 8 h, 4d 2 h)"}, "[3]": {"target": "T1, Calpain I from porcine erythrocytes (Sus scrofa, UniProt P35750)", "T1 sequence (P35750 1-714)": "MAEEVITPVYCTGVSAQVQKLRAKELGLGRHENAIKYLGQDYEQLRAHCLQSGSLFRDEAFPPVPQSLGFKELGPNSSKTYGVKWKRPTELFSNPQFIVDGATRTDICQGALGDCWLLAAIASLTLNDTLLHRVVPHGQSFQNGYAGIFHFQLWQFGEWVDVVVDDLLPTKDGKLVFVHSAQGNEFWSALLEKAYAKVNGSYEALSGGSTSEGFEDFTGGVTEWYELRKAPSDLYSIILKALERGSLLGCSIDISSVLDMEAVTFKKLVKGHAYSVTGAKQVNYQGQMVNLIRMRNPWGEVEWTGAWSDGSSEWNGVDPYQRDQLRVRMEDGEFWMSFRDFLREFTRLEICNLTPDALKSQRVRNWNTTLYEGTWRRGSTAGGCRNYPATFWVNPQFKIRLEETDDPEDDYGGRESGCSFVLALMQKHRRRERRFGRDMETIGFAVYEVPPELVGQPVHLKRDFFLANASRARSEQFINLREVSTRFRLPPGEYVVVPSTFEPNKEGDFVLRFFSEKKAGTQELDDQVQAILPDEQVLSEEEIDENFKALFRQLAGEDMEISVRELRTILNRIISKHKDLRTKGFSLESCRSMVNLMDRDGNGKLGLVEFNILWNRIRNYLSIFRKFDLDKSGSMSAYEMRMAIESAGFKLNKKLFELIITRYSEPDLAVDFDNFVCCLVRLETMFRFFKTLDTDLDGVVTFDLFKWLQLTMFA", "T1 sequence (P04574 1-266 partner)": "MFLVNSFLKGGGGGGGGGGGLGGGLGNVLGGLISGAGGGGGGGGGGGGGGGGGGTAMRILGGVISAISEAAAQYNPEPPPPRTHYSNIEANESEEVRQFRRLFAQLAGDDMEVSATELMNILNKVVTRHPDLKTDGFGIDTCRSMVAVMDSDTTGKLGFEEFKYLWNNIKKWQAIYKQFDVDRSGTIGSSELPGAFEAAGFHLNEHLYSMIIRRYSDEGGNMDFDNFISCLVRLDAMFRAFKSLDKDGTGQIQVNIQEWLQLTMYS", "test": "Calpain I inhibition, fluorogenic Suc-Leu-Tyr-AMC assay, Ki by Dixon plots"}, "[4]": {"target": "T2, calpain II from porcine kidney (Sus scrofa, UniProt A6YNL5)", "T2 sequence (A6YNL5 20-700)": "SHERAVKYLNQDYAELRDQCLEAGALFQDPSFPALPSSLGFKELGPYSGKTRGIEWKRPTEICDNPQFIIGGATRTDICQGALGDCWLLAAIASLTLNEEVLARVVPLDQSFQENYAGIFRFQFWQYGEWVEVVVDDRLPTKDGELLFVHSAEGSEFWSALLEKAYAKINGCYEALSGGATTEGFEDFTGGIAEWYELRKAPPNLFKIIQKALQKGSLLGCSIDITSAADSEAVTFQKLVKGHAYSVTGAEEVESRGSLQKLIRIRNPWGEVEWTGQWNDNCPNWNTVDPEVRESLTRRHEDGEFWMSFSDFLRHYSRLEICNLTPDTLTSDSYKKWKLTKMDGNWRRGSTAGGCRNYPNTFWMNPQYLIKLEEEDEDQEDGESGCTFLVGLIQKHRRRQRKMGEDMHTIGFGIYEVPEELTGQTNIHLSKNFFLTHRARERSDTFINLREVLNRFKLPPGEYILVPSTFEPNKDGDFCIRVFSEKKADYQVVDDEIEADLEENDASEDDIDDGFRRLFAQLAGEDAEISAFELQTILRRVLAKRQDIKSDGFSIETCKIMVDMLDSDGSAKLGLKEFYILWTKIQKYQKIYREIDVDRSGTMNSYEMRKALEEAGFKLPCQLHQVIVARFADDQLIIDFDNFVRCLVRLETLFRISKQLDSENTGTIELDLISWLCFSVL", "T2 sequence (P04574 1-266 partner)": "T1 sequence (P04574 1-266 partner)", "test": "Calpain II inhibition, fluorogenic Suc-Leu-Tyr-AMC assay, Ki by Dixon plots", "format": "biochemical", "conditions": "selectivity calpain I over calpain II"}, "[5]": {"target": "Cathepsin B from human liver (Homo sapiens, UniProt P07858)", "test": "Cathepsin B inhibition, fluorogenic Cbz-Arg-Arg-AMC assay, Ki by Dixon plots", "format": "biochemical"}}, "note": "Read-outs that look alike come from different tables or passages of the source. Marks after values point to notes of the source that are not given here."}
{"compound": "CCC(NC(=O)[C@H](CC(C)C)NC(=O)OCc1ccccc1)C(=O)C(=O)NCCCN1CCOCC1", "note": "(stereo partly drawn) [Compound 1, Cbz-Leu-D,L-Abu-CONH-(CH2)3-morpholine]", "values": [{"measurement": "concentration at 1 h", "setting": "[1]; female, C57BL/6, mouse, liver, heart, kidney, spleen, other: subcutaneous or intravenous, 24 mg/kg", "value": "> 500", "unit": "ng/g"}, {"measurement": "Bioavailability via subcutaneous or oral administration", "setting": "[1]; mice, 24 mg/kg", "value": "good"}, {"measurement": "Detection in the brain", "setting": "[1]; mice, 24 mg/kg subcutaneous, intravenous or oral", "value": "could not be detected"}]}
{"compound": "CCC(NC(=O)[C@H](CC(C)C)NC(=O)OCc1ccccc1)C(=O)C(=O)NCCCn1cnc2c(N)ncnc21", "note": "(stereo partly drawn) [Compound 4a, 3-(Benzyloxycarbonyl-L-leucylamino)-N-(3-(6-amino-9H-purin-9-yl)propyl)-2-oxopentanamide]", "values": [{"measurement": "Concentration in the mouse brain", "setting": "[2]; 8 hour, numeric value from one mouse, other two NQ", "value": "1.17 ± 0.01 ^b µg/g tissue"}, {"measurement": "Concentration observed in brain, in molar terms", "setting": "[2]", "value": "approximately 2 µM"}]}
{"compound": "CCC(NC(=O)[C@H](CC(C)C)NC(=O)OCc1ccccc1)C(=O)C(=O)NCCCn1ccc(N)nc1=O", "note": "(stereo partly drawn) [Compound 4c]", "values": [{"measurement": "fold less potent than the adenine derivatives", "setting": "[3]", "value": "3- to 8 fold"}]}
{"compound": "CCC(NC(=O)[C@H](CC(C)C)NC(=O)OCc1ccccc1)C(=O)C(=O)NCCCN1CCN(C)CC1", "note": "(stereo partly drawn) [Compound 4d, 3-(Benzyloxycarbonyl-L-leucylamino)-N-(3-(4-methylpiperazin-1-yl)propyl)-2-oxopentanamide]", "values": [{"measurement": "Concentration in the mouse brain", "setting": "[2]; 1 hour", "value": "could be detected"}, {"measurement": "Concentration in the mouse brain", "setting": "[2]; 2 hour, numeric value from one mouse, other two NQ", "value": "1.14 ± 0.02 ^b µg/g tissue"}, {"measurement": "Concentration observed in brain, in molar terms", "setting": "[2]", "value": "approximately 2 µM"}]}
{"compound": "COc1nc(N)c2ncn(CCCNC(=O)C(=O)C(Cc3ccccc3)NC(=O)[C@H](CC(C)C)NC(=O)OCc3ccccc3)c2n1", "note": "(stereo partly drawn) [Compound 5b, 3-(Benzyloxycarbonyl-L-leucylamino)-N-(3-(6-amino-2-methoxy-9H-purin-9-yl)propyl)-2-oxophenylbutanamide]", "values": [{"measurement": "fold less potent on calpain II than on calpain I", "setting": "[4]", "value": 5, "unit": "fold"}]}
{"compound": "CC(C)C[C@H](NC(=O)OCc1ccccc1)C(=O)NC(Cc1ccccc1)C(=O)C(=O)NCCCn1ccc(N)nc1=O", "note": "(stereo partly drawn) [Compound 5c]", "values": [{"measurement": "fold less potent than the adenine derivatives", "setting": "[3]", "value": "3- to 8 fold"}, {"measurement": "selectivity for calpain I and calpain II versus cathepsin B", "setting": "[5]", "value": "equally potent"}]}
{"compound": "CC(C)C[C@H](NC(=O)OCc1ccccc1)C(=O)NC(Cc1ccccc1)C(=O)C(=O)NCCCN1CCN(C)CC1", "note": "(stereo partly drawn) [Compound 5d, 3-(Benzyloxycarbonyl-L-leucylamino)-N-(3-(4-methylpiperazin-1-yl)propyl)-2-oxophenylbutanamide]", "values": [{"measurement": "selectivity for calpain I and calpain II versus cathepsin B", "setting": "[5]", "value": "good selectivity"}]}
{"compound": "CC(C)C[C@H](NC(=O)OCc1ccccc1)C(=O)NC(Cc1ccccc1)C(=O)C(=O)NCCCN(C)C", "note": "(stereo partly drawn) [Compound 5e, 3-(Benzyloxycarbonyl-L-leucylamino)-N-(3-(dimethylamino)propyl)-2-oxophenylbutanamide]", "values": [{"measurement": "selectivity for calpain I and calpain II versus cathepsin B", "setting": "[5]", "value": "good selectivity"}, {"measurement": "fold less potent on calpain II than on calpain I", "setting": "[4]", "value": 3, "unit": "fold"}]}
